Experimental data taken from patent US6207675A, “Pyrrole derivatives, their preparation and pharmaceutical compositions containing them” (Rhone-Poulenc Rorer S.A., priority 1996, dated 2001).
≈ marks a conversion by molar mass, not a printed value.

Legend:
[1] = tested on: human cytomegalovirus Davis strain; experiment: Antiviral activity on human cytomegalovirus, Davis strain (protection from virus-induced cytopathogenic effect); assay type: cell-based; conditions: for IC50 (concentration necessary to inhibit 50% of the cytopathogenic effect induced by the virus): Davis strain; for IC50: Human betaherpesvirus 5, Davis strain, read-out: IC50 (concentration necessary to inhibit 50% of the cytopathogenic effect induced by the virus)
Experimental: (§1) Infect. Dis., 10, 1026-1033 (1991); or in the technique described by Andrei et al., Eur. J. Clin. Microbiol. Infect. Dis., 11, 143-151 (1992), Reymen et al., Antiviral Res., 28, 343-357 (1995).
(§2) The technique used consists in the measurement of the cytopathogenic effect of the herpesvirus and of its protection by the use of products of general formula (I). The antiviral activity is assessed by measuring the IC50 (concentration necessary to inhibit 50% of the cytopathogenic effect induced by the virus).
(§3) The activity of the products according to the invention on the human cytomegalovirus has been studied on the Davis and AD-169 strains.

[2] = tested on: human cytomegalovirus AD-169 strain; experiment: Antiviral activity on human cytomegalovirus, AD-169 strain (protection from virus-induced cytopathogenic effect); assay type: cell-based
Experimental: as §1, §2, §3

SMILES | IC50 (concentration necessary to inhibit 50% of the cytopathogenic effect induced by the virus) ([1]; listed as 7 [(R,S) form]) [µg/mL] | IC50 [1] [µg/mL] | IC50 (concentration necessary to inhibit 50% of the cytopathogenic effect induced by the virus) [1] [µg/mL] | IC50 (concentration necessary to inhibit 50% of the cytopathogenic effect induced by the virus) ([2]; AD-169 strain) [µg/mL] | IC50 ([2]; Human betaherpesvirus 5, AD169, AD-169 strain, read-out: IC50 (concentration necessary to inhibit 50% of the cytopathogenic effect induced by the virus)) [µg/mL]
NC(=O)c1c(Cl)c(-c2cccnc2)n2c1C(O)CCC2 (racemic) [Example 7, (R,S)-2-chloro-8-hydroxy-3-pyridin-3-yl-5,6,7,8-tetrahydroindolizine-1-carboxamide] | 0.015 | 0.027 (≈ 0.0925 µM) | – | – | –
NC(=O)c1c(Cl)c(-c2cccnc2)n2c1C=C(Cl)CC2 [Example 1, 2,7-dichloro-3-pyridin-3-yl-5,6-dihydroindolizine-1-carboxamide] | – | 0.5 (≈ 1.62 µM) | – | – | –
COC1=Cc2c(C(N)=O)c(Cl)c(-c3cccnc3)n2CC1 [Example 2, 2-chloro-7-methoxy-3-pyridin-3-yl-5,6-dihydroindolizine-1-carboxamide] | – | 0.43 (≈ 1.42 µM) | 0.72 | 0.86 | 0.5 (≈ 1.65 µM)
